Measurements published in patent US20210038559A1, “CANNABINOIDS AND DERIVATIVES FOR PROMOTING IMMUNOGENICITY OF TUMOR AND INFECTED CELLS” (priority 2018, published 2021).

Test system: MHC-I expression by COLO 205 cells
Experiment: cells
Assay type: cell-based, human
Conditions: not given
Method: A panel of synthetic cannabinoids (Cayman Chemical, #9002891) was tested for MHC class I-inducing capability in COLO 205 cells as described above. COLO 205 cells were treated with the compounds at a concentration of 35 μM and evaluated for cell surface MHC class I expression after 48 hours. Cells were harvested, stained with MHC-I mAb W6/32 (Thermo Fisher). MHC-I expression was determined by flow cytometry.

Q: Which “Induction Fold” value does the source give for `CCCCCCn1cccc1C(=O)c1cccc2ccccc12` [Example 202, (1-hexyl-1H-pyrrol-2-yl)-1-naphthalenyl-methanone] here?
A: The value was 1.87 Fold.

Same assay, conditions: Homo sapiens, COLO 205, 48 h, MHC-I expression, COLO 205 cells, compounds at 35 μM, 48 hours, flow cytometry (W6/32); read-out: Induction Fold

Q: With `O=C(Nc1cccc2ccccc12)c1nn(CCCCCF)c2ccccc12` [Example 184, 1-(5-fluoropentyl)-N-1-naphthalenyl-1H-indazole-3-carboxamide] as the molecule, how does the fold induction at 35 µM read?
A: The fold induction at 35 µM was 1.9.

Q: With `CC1(C)C(C(=O)c2nn(CCCCCF)c3ccccc23)C1(C)C` [Example 185, (1-(5-fluoropentyl)-1H-indazol-3-yl)(2,2,3,3-tetramethylcyclopropyl)methanone] as the molecule, how does the fold induction at 35 µM read?
A: Its fold induction at 35 µM is 1.9.

Q: `CC(C)(C)C(NC(=O)c1cn(Cc2ccccc2)c2ccccc12)C(N)=O` (stereo not drawn) [Example 186, N-(1-amino-3,3-dimethyl-1-oxobutan-2-yl)-1-benzyl-1H-indole-3-carboxamide] was tested. Which fold induction at 35 µM did it give?
A: Its fold induction at 35 µM is 1.9.

Q: For `CCCC(C)n1cc(C(=O)c2cccc3ccccc23)c2ccccc21` (stereo not drawn) [Example 187, naphthalen-1-yl(1-(pentan-2-yl)-1H-indol-3-yl)methanone], which fold induction at 35 µM is on record?
A: Its fold induction at 35 µM is 1.9.

Q: `Cc1ccc(C(=O)c2cn(CCCCCCl)c3ccccc23)c2ccccc12` [Example 189, (1-(5-chloropentyl)-1H-indol-3-yl)(4-methylnaphthalen-1-yl)methanone] was tested. Which fold induction at 35 µM did it give?
A: The fold induction at 35 µM was 1.89.

Q: How did the fold induction at 35 µM turn out when `CCCCCn1cc(C(=O)Cc2ccccc2Cl)c2ccccc21` [Example 190, 2-(2-chlorophenyl)-1-(1-pentyl-1H-indol-3-yl)-ethanone] was run?
A: The fold induction at 35 µM was 1.89.

Q: How did the fold induction at 35 µM turn out when `CCCCCn1cc(C(=O)c2cccc3c(C)cccc23)c2ccccc21` [Example 191, (5-methylnaphthalen-1-yl)(1-pentyl-1H-indol-3-yl)methanone] was run?
A: Its fold induction at 35 µM is 1.89.

Q: For `CCCCCc1cc(OC)c2cc(Cc3ccccc3OC)c(=O)oc2c1` [Example 200, 5-methoxy-3-[(2-methoxyphenyl)methyl]-7-pentyl-2H-1-benzopyran-2-one], which fold induction at 35 µM is on record?
A: Its fold induction at 35 µM is 1.88.

Q: Which fold induction at 35 µM does the source give for `CCC(CC)n1cc(C(=O)c2ccc3ccccc3c2)c2ccccc21` [Example 201, [1-(1-ethylpropyl)-1H-indol-3-yl]-2-naphthalenyl-methanone] here?
A: The fold induction at 35 µM was 1.87.

Q: How did the fold induction at 35 µM turn out when `Cc1ccc(C(=O)c2cn(CCN3CCOCC3)c3ccccc23)c2ccccc12` [Example 203, (4-methyl-1-naphthalenyl)[1-[2-(4-morpholinyl)ethyl]-1H-indol-3-yl]-methanone] was run?
A: The fold induction at 35 µM was 1.87.

Q: Which fold induction at 35 µM does the source give for `O=C(Oc1cccc2cccnc12)c1cn(Cc2ccc(F)cc2)c2ccccc12` [Example 204, 1-[(4-fluorophenyl)methyl]-1H-indole-3-carboxylic acid, 8-quinolinyl ester] here?
A: Its fold induction at 35 µM is 1.87.

Q: With `CCCCCn1cc(C(=O)c2ccc(Br)c3ccccc23)c2ccccc21` [Example 205, (4-bromo-1-naphthalenyl)(1-pentyl-1H-indol-3-yl)-methanone] as the molecule, how does the fold induction at 35 µM read?
A: The fold induction at 35 µM was 1.86.

Q: How did the fold induction at 35 µM turn out when `O=C(Oc1cccc2ncccc12)c1cn(CC2CCCCC2)c2ccccc12` [Example 206, quinolin-5-yl 1-(cyclohexylmethyl)-1H-indole-3-carboxylate] was run?
A: Its fold induction at 35 µM is 1.86.

Q: Which fold induction at 35 µM does the source give for `CCCCC(F)Cn1cc(C(=O)c2cccc3ccccc23)c2ccccc21` (stereo not drawn) [Example 207, (1-(2-fluorohexyl)-1H-indol-3-yl)(naphthalen-1-yl)methanone] here?
A: Its fold induction at 35 µM is 1.85.

Q: `O=C(Nc1cccc2cccnc12)c1cn(CCCCCF)c2ccccc12` [Example 208, 1-(5-fluoropentyl)-N-(quinolin-8-yl)-1H-indole-3-carboxamide] was tested. Which fold induction at 35 µM did it give?
A: Its fold induction at 35 µM is 1.84.

Same assay, conditions: MHC-I expression, COLO 205 cells, compounds at 35 μM, 48 hours, flow cytometry (W6/32)

Q: With `CCCCCn1nc(C(=O)N[C@H](C(=O)OC)C(C)C)c2ccccc21` [Example 183, N-[(1-pentyl-1H-indazol-3-yl)carbonyl]-1-valine, methyl ester] as the molecule, how does the “Induction Fold” value read?
A: The value was 1.91 Fold.

Q: Which “Induction Fold” value does the source give for `CCCC(C)(C)c1ccc2c(c1)OC(C)(C)[C@@H]1CC=C(C)C[C@@H]21` [Example 188, 3-(1,1-dimethylbutyl)-6aR,7,10,10aR-tetrahydro-6,6,9-trimethyl-6H-dibenzo[b,d]pyran] here?
A: The value was 1.90 Fold.
